Results taken from patent US12011438B2, “Composition for protecting cardiomyocyte” (Kyoto University, priority 2018, dated 2024).
Counter-ions that a name gives are not always drawn.

Experiments:
[1] = tested on: CHOP and Bip, ER stress markers; assay: Western blotting of ER stress markers in rat cardiomyoblasts in glucose-free medium; assay type: cell-based; conditions: H9C2 cells, 200 μM KUS121 (FIG. 7)
Procedure: (§1) H9C2 cells, rat cardiomyoblasts, were cultured in Dulbecco's modified Eagle's medium (DMEM) supplemented with 5% fetal bovine serum in the presence of […] tunicamycin (Sigma-Aldrich Co. LLC), which induces ER stress, and 25, 50, 100, or […] KUS121 for 24 hours. The cells were counted by Countess II (Thermo Fisher Scientific). The intracellular ATP levels were measured using “Cell” ATP Assay reagent (TOYO B-Net Co., LTD). The luciferase activities, which indicate ATP levels, were measured with ARVO X3 (PerkinElmer, Inc.).
(§2) The cells cultured as above were subjected to Western blotting. […] After the protein concentrations were measured with BCA protein assay kit (Bio-Rad, 5000006JA), 15 μg of the protein samples were separated in NuPAGE 4-12% Bis-Tris Mini gels (Thermo Fisher Scientific) and transferred to Protran nitrocellulose transfer membrane (Whatman). The membrane was blocked with PBS containing 5% skim milk for 30 minutes, incubated with primary antibodies overnight at 4° C., washed with PBS-0.05% Tween-20 (PBS-T), incubated with secondary antibodies for 1 hour at room temperature, and washed with PBS-T. Pierce Western Blotting Substrate (Thermo Fisher Scientific) or Pierce Western Blotting Substrate plus (Thermo Fisher Scientific) were reacted with the secondary antibodies for producing colors, and the color intensities were measured by LAS-4000 Mini system (Fuji Film). […]

[2] = tested on: cardiac ischemia and reperfusion injury model pigs; assay: Porcine cardiac ischemia and reperfusion injury model (intravenous and intracoronary administration of KUS); assay type: in vivo, Yorkshire pig
Procedure: Porcine myocardial infarction model was prepared by inserting a catheter into a Yorkshire pig under general anesthesia and occluding the left coronary artery with a balloon. An infusion solution was prepared by dissolving KUS121 (4 mg/kg) in 250 mL of glucose solution and administered by intravenous infusion that started 45 minutes after the occlusion of the coronary artery and continued for 3 hours. The balloon was released 60 minutes after the occlusion, and 10 mL of the infusion solution was infused intracoronarily.
One week after the occlusion, the infarct size was evaluated by late gadolinium enhanced MRI. […] The cardiac function was evaluated by determining left ventricular ejection fraction, end diastolic volume, end systolic volume, cardiac output, and left ventricular mass by MRI. The left ventricular systolic function was improved by KUS121 administration.
After the MRI, the occluded part of the left coronary artery was occluded again with the balloon catheter and 1% Evans blue was injected to the left and right coronary arteries (60 mL for the left coronary artery and 30 mL for the right coronary artery; non-infarct regions were stained blue). Additionally, 30 mL of 1% TTC solution was injected through the guidewire lumen of the occlusion balloon. Euthanasia was then performed by an intravenous injection of potassium chloride. The heart was isolated and 10-mm thick sections were prepared parallel to the atrioventricular groove. The sections were further immersed in 1% TTC solution for 10 minutes at 37° C. (regions not damaged by myocardial infarction were stained red). All sections were weighed and photographed. They were fixed in 10% formaldehyde and used for subsequent histological analysis. […] No difference was found in the area at risk between the […] group and the KUS group, but administration of KUS decreased the infarcted area per area at risk.

[3] = tested on: cardiac ischemia and reperfusion injury model mice; assay: Mouse cardiac ischemia and reperfusion injury model (KUS administration after reperfusion); assay type: in vivo; conditions: seven days after surgery
Procedure: Mouse myocardial infarction model was prepared as in Test 5.
First, immediately after the reperfusion KUS121 was administered intravenously at the dose of 80 mg/kg and intraperitoneally at the dose of 80 mg/kg. Subsequently, KUS121 was intraperitoneally administered at the dose of 160 mg/kg every 24 hours for 4 days. Seven days after the surgery, histological analysis was performed as in Test 5 to determine the infarcted area.
Immediately after the reperfusion KUS121 was administered intravenously at the dose of 25 mg/kg and intraperitoneally at the dose of 25 mg/kg. Subsequently, KUS121 was not administered. Seven days after the surgery, histological analysis was performed as in Test 5 to determine the infarcted area.
Immediately after the reperfusion KUS121 was administered intravenously at the dose of 8 mg/kg and intraperitoneally at the dose of 8 mg/kg. Subsequently, KUS121 was not administered. Seven days after the surgery, histological analysis was performed as in Test 5 to determine the infarcted area.

[4] = tested on: A team mouse heart ischemia and reperfusion injury model; assay: Mouse heart ischemia and reperfusion injury model (ATP visualization mouse); assay type: in vivo; conditions: A team mice, 160 mg/kg i.p. 2 hours before reperfusion, 45 minutes ischemia
Excerpt: ATP visualization mouse (A team mouse) generated by Dr. Masamichi Yamamoto (Department of Nephrology, Graduate School of Medicine, Kyoto University) was used. In A team mouse fluorescence resonance energy transfer (FRET) from GFP to OFP occurs depending on the intracellular ATP level. The OFP/GFP ratio is proportional to the ATP level.
Anesthesia was induced in each A team mouse with 4% isoflurane and maintained with 2% isoflurane during surgery. An endotracheal tube was introduced after the anesthetic induction and positive pressure ventilation was provided. The lateral thoracic regions and subcostal margins were incised bilaterally and the thoracic cavity was opened to expose the heart. […] The ischemia was continued for 45 minutes and then reperfusion was induced by removing the PE10 tube. KUS121 was intraperitoneally administered at the dose of 160 mg/kg 2 hours before the reperfusion. For measuring the ATP level, fluorescence was excited at 470/40 and detected at 515/30 for GFP and 575/40 for OFP to acquire images. The OFP/GFP ratios were analyzed using MetaMorph (Molecular Devices). The ATP level during ischemia was decreased in the control group, but maintained in the KUS121 group.

[5] = tested on: CHOP and Bip, ER stress markers; assay: Western blotting of ER stress markers in rat cardiomyoblasts under tunicamycin; assay type: cell-based; conditions: H9C2 cells, 200 μM KUS121 (FIG. 5)
Procedure: as §1, §2

[6] = tested on: H9C2 cells, rat cardiomyoblasts; assay: Rat cardiomyoblasts under ER stress with tunicamycin: cell number and ATP level; assay type: cell-based; conditions: 0.1 pg/mL tunicamycin, 25, 50, 100, or 200 pM KUS121, 24 hours
Procedure: as §1

[7] = tested on: H9C2 cells, rat cardiomyoblasts; assay: Rat cardiomyoblasts under ER stress by glucose depletion: cell number and ATP level; assay type: cell-based; conditions: glucose-free medium, 25, 50, 100, or 200 μM KUS121 (FIG. 6)
Procedure: as §1
Similar experiments were performed using the cells cultured in a glucose-free medium. […] The expressions of CHOP and Bip, ER stress markers, were suppressed in the presence of KUS121.

[8] = tested on: cardiac ischemia and reperfusion injury model mice; assay: Mouse cardiac ischemia and reperfusion injury model (KUS administration prior to ischemia); assay type: in vivo
Procedure: Eight-week-old C57BL/6J mice were used. Each mouse was anesthetized with intraperitoneally administered pentobarbital (64.8 mg/kg). An endotracheal tube was introduced after the anesthetic induction and positive pressure ventilation was provided.
Each mouse was fixed in a right lateral position, the thoracic cavity was opened through left thoracotomy in the third intercostal space to expose the heart. […] The blockage of the coronary blood flow was confirmed by observing a change in the color of the myocardium. The ischemia was continued for 45 minutes and then reperfusion was induced by removing the PE10 tube. The reperfusion was confirmed by checking restoration of the color of the myocardium. The thoracic cavity was closed with 7-0 prolene sutures and the skin was closed with 4-0 silk sutures. After observing awakening from the anesthesia, the endotracheal tube was removed.
KUS121 dissolved in a physiological saline was injected prior to the ischemia induction. […] First, 2 hours before the reperfusion, i.e., about 1 hour before the start of the ischemia, KUS121 was intraperitoneally administered at the dose of 160 mg/kg. Subsequently, KUS121 was intraperitoneally administered at the dose of 160 mg/kg every 24 hours for 6 days.
Seven days after the surgery, the mice were anesthetized with pentobarbital, perfused with 4% paraformaldehyde (PFA) for fixation, and the hearts were isolated. The isolated hearts were further fixed in 4% PFA overnight. The hearts were embedded in paraffin and sections were prepared. The infarcted regions were evaluated with Masson's trichrome staining. The images were acquired using a microscope (BZ-9000, Keyence) and the infarcted areas were measured using Image J (NIH).
To evaluate the cardiac function, echocardiography (Vevo^(registered trademark) 2100, VISUALSONICS) was performed in the mouse ischemia and reperfusion injury model. […] The left ventricular systolic functions were evaluated by measuring the left ventricular fractional shortening and left ventricular ejection fraction in parasternal short axis views.

[9] = tested on: cardiac ischemia and reperfusion injury model pigs; assay: Porcine cardiac ischemia and reperfusion injury model (KUS administration after reperfusion); assay type: in vivo, Yorkshire pig; conditions: intracoronary injection 0.64, 2.5, or 5.0 mg/kg immediately after reperfusion, seven days after surgery
Procedure: Porcine myocardial infarction model was prepared as in Test 8. The balloon was released 60 minutes after the occlusion, and immediately KUS121 was administered by intracoronary injection at a dose of 0.64, 2.5, or 5.0 mg/kg for 3 minutes. Seven days after the surgery, the infarct size was evaluated by MRI and the infarcted area was determined by histological analysis as in Test 8.

[10] = intravenous infusion plus intracoronary, histological analysis (Evans blue/TTC)

Cc1cc(F)ccc1-c1ccc(/N=N/c2cc(S(=O)(=O)O)c3ccccc3c2N)cn1 [KUS121, 4-amino-3-[6-(4-fluoro-2-methylphenyl)pyridine-3-ylazo]naphthalene-1-sulfonic acid sodium salt]
expression of Bip [1]: suppressed | expression of CHOP [1]: suppressed | left ventricular systolic function ([2]; 4 mg/kg intravenous infusion for 3 hours plus intracoronary infusion after reperfusion, MRI one week after occlusion): improved | area at risk relative to the left ventricle [2, 10]: No difference | infarcted area per area at risk [2, 10]: decreased | infarcted area (ratio to left ventricle area) ([3]; (1) 160 mg/kg: 80 mg/kg i.v. + 80 mg/kg i.p. immediately after reperfusion, then 160 mg/kg i.p. every 24 hours for 4 days): smaller in the KUS121 group than in the control group | infarcted area (ratio to left ventricle area) ([3]; (2) 50 mg/kg: 25 mg/kg i.v. + 25 mg/kg i.p. immediately after reperfusion only): smaller in the KUS121 group than in the control group | infarcted area (ratio to left ventricle area) ([3]; (3) 16 mg/kg: 8 mg/kg i.v. + 8 mg/kg i.p. immediately after reperfusion only): No significant difference | ATP level during ischemia (OFP/GFP ratio) [4]: maintained | expression of Bip [5]: suppressed | expression of CHOP [5]: suppressed | ATP level [6]: increased depending on the dose | cell number [6]: increased depending on the dose | ATP level [7]: increased depending on the dose | cell number [7]: increased depending on the dose | infarcted area (ratio to left ventricle area) ([8]; 160 mg/kg i.p. 2 hours before reperfusion and every 24 hours for 6 days, seven days after surgery, Masson's trichrome): smaller in the KUS121 group than in the control group | expression of CHOP in the border zone and non-ischemic zone ([8]; 160 mg/kg i.p. prior to ischemia and every 24 hours, Western blotting): suppressed | left ventricular systolic function (fractional shortening, ejection fraction) ([8]; 160 mg/kg i.p. prior to ischemia and every 24 hours, echocardiography): kept well at almost the same level as that in sham-operated group | ratio of infarcted area/left ventricle (LV) area evaluated by MRI [9]: decreased in the KUS121 group in a dose-dependent manner | ratio of infarcted area/AAR ([9]; histological analysis): decreased in the KUS121 group in a dose-dependent manner | ratio of infarcted area/area at risk (AAR) (first mention) ([9]; versus control group): comparable with that of the control group
